This note sets out measurements from patent publication US20100292200A1, “Methods for Modulating Apoptosis in Platelets” (The Walter and Eliza Hall Institute of Medical Research, priority 2006, published 2010).

The subject of one assay is serum TPO levels. Briefly: Thrombopoietin analysis (serum TPO ELISA) in ABT-737 treated mice. The assay is classed as in vivo, mouse. Particulars: after ABT-737. The method, then:
Animals were bled 2-24 h afterwards and platelet counts determined. […] (B) Platelet recovery after a single dose of ABT-737. Platelet counts (blue symbols; left axis) were determined 2-96 h after a single dose of ABT-737 (red arrow). […] Orange symbols represent serum TPO levels (right axis). (C) Cyclical acute thrombocytopaenia triggered by ABT-737. Platelet counts were determined before and 8 h after a single dose of ABT-737 (red arrows) given at weekly intervals. […] During recovery, baseline counts drifted upwards. (D) ABT-737 acts selectively on aged platelets. […] (E) Synchronizing platelets. […] During recovery, the newly synthesized younger platelets are larger as indicated by the increased mean platelet volume (blue symbols; right axis). (F) Young platelets are resistant to ABT-737. Wild type C57BL/6 mice were treated with APS, and then injected with ABT-737 (red arrows) either 2 or 7 days afterwards. Absolute platelet counts and the % of reticulated platelets were measured. […]
Blood was collected from the retroorbital sinus using a non-heparinized capillary tube into an eppendorf tube and incubated at room temperature for 2 h. […] Thrombopoietin levels were measured by enzyme-linked immunosorbent assay (ELISA) using the Quantikine Mouse TPO Immunoassay kit (R&D Systems) according to the manufacturer's instructions.

In assay [1] the test system is human platelet rich plasma. Briefly: Platelet aggregometry on human platelet rich plasma. The assay is classed as cell-based. The method, then:
Platelet aggregometry performed on human platelet rich plasma (250×10^9/L platelets) pre-incubated for 1 h with 1 μM ABT-737 (green line) or not (red) before stimulation with (A) collagen (4 μg/ml) or (B) ADP (10 μM).
Whole blood was collected in sodium citrate (3.2%) and platelet rich plasma obtained by centrifugation at 800 rpm for 12 min at room temperature. Platelet poor plasma was then obtained by centrifugation of remaining blood at 3,000 rpm for 15 min at room temperature. Platelet count was adjusted to 250×10^9/L using platelet poor plasma. Diluted platelet rich plasma was placed in an aggregometer cuvette warmed to 37° C. and stirred whilst light transmission through the plasma was measured in a 4 channel platelet aggregometer. After baseline measurements were obtained, ADP or Collagen (both from Edward Keller) was added to induce aggregation.

The test system of another assay is reticulated platelets. Briefly: Reticulated platelet labeling (thiazole orange) after ABT-737. Type of assay: in vivo, mouse. Particulars: thiazole orange staining after a single dose. The method, then:
Animals were bled 2-24 h afterwards and platelet counts determined. […] (B) Platelet recovery after a single dose of ABT-737. Platelet counts (blue symbols; left axis) were determined 2-96 h after a single dose of ABT-737 (red arrow). […] Orange symbols represent serum TPO levels (right axis). (C) Cyclical acute thrombocytopaenia triggered by ABT-737. Platelet counts were determined before and 8 h after a single dose of ABT-737 (red arrows) given at weekly intervals. […] During recovery, baseline counts drifted upwards. (D) ABT-737 acts selectively on aged platelets. […] (E) Synchronizing platelets. […] During recovery, the newly synthesized younger platelets are larger as indicated by the increased mean platelet volume (blue symbols; right axis). (F) Young platelets are resistant to ABT-737. Wild type C57BL/6 mice were treated with APS, and then injected with ABT-737 (red arrows) either 2 or 7 days afterwards. Absolute platelet counts and the % of reticulated platelets were measured. The top panels show representative flow cytometric profiles following thiazole orange staining before or after ABT-737 injections. The bottom panels show platelet counts prior to or 2 h post ABT-737 injection. Data in (B), (C), (E) and (F) represent means±SD of 3-6 mice at each time point.
Staining of reticulated platelets was performed using thiazole orange. […]

The subject of the next assay is Mcl-1 null MEF cells. Briefly: Assay of Mcl-1 null MEF cells (rescue from ABT-737-induced killing, CellTitre-Blue viability). Type of assay: cell-based, mouse. The conditions noted are these: Mcl-1^(-/-) MEFs. The method, then:
In summary, cells are split on day one in order to have them at a confluency of 60-80% on day two. On day two, the cells are seeded out into assay plates at a density that will ensure they are not confluent by day four of the assay. The assay plates are incubated at room temperature for 20-60 minutes before being transferred to 37° C. so that edge effects are minimized. For the same reason, assay plates are never stacked on top of each other in the incubator. On day three the cells are treated first with either Q-VD or with WEHI library compound. The cells are incubated for a 2 hour period in the presence of the library compounds and are then treated with ABT-737. […] After four hours the level of resorufin is measured.
The protocol for day one was repeated up to the point where the cells were pelleted and the supernatant aspirated off. […] The cells were vortexed and then counted using a haemocytometer. The dilution necessary to achieve a density of 2×10^4 cells ml^−1 (1000 cells per well per 50 μl media) in the required volume was calculated and the dilution performed in 1% FCS FMA. […]
CellTitre-Blue™ was warmed to 37° C. and 10 μl was then added to each well of the assay plates using the Multidrop. The plates were returned to 37° C. for 4 hours before being loaded into the EnVision plate reader. […]

Entries after “also recorded” stand apart in the source; their conditions may differ.

Take `CN(C)CC[C@H](CSc1ccccc1)Nc1ccc(S(=O)(=O)NC(=O)c2ccc(N3CCN(Cc4ccccc4-c4ccc(Cl)cc4)CC3)cc2)cc1[N+](=O)[O-]` [ABT-737]: the “TPO levels in ABT-737 treated mice” value with serum TPO levels is “sustained production; also recorded: normal, or probably even elevated”. Further, the “responses to other agonists (Epinephrine, Arachidonic Acid, Ristocetin)” value in assay [1] (1 μM ABT-737 (data not shown)) was “did not alter responses”. Moreover, the “platelet activation / aggregation in response to collagen or ADP” value in assay [1] (pre-incubated 1 h with 1 μM ABT-737, collagen 4 μg/ml or ADP 10 μM) was “did not trigger platelet activation or adversely impact upon the ability of platelets to aggregate; also recorded: did not induce platelet aggregation or affect that with agonists”. In the assay on reticulated platelets, the “proportion of reticulated platelets post ABT-737” value is “transient increase; also recorded: increased proportion”. Besides, the “induction of apoptosis in Mcl-1^(-/-) cells” value with Mcl-1 null MEF cells was “Apoptosis is induced”.
